≈ marks a conversion by molar mass, not a printed value. Calls of active or inactive are those of the source. No cut-off for these calls is given here.
How the values were obtained:
Alpha amylase = molecular target: T1, Alpha amylase (Homo sapiens, UniProt P0DUB6); experiment: Inhibition of Alpha-amylase (unknown origin); assay type: protein assay
T1 sequence (P0DUB6 whole entry): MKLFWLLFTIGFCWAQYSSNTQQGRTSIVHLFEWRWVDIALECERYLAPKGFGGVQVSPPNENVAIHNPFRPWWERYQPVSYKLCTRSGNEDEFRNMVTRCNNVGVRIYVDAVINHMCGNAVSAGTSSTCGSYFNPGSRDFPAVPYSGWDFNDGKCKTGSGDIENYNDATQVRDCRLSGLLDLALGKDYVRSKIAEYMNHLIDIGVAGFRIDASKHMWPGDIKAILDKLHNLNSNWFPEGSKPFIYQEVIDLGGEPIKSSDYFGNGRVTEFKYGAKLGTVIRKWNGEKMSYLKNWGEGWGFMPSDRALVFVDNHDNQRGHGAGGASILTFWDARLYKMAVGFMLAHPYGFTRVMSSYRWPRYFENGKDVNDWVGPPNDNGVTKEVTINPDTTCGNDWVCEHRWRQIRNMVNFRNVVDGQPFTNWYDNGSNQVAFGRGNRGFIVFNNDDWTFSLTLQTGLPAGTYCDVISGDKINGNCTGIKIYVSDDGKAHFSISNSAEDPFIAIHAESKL

[1] = Inhibition of Alpha glucosidase (unknown origin); parameters: species or system Homo sapiens
Alpha-amylase = molecular target: T2, Alpha-amylase (Sus scrofa domesticus, UniProt Q7M328); experiment: Inhibition of porcine pancreatic Alpha-amylase using starch as substrate preincubated for 10 mins followed by substrate addition and measured after 15 mins by Bio-rad microplate reader analysis
T2 sequence (Q7M328 whole entry): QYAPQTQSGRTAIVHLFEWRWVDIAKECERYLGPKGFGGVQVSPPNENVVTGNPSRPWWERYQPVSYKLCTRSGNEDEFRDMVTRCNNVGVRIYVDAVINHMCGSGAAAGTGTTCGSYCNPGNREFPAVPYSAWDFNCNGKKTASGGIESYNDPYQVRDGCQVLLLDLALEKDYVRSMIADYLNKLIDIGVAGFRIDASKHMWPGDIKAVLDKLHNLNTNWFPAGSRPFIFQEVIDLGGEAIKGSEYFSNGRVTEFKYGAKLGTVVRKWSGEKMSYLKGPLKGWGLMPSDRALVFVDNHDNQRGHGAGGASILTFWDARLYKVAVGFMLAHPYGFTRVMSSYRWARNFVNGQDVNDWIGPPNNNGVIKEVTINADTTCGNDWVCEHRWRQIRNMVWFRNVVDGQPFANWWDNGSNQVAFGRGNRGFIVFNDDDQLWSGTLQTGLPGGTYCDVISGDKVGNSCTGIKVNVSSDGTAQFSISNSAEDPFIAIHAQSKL

Alpha-glucosidase = Alpha-glucosidase (Saccharomyces cerevisiae S288c, UniProt P53341+P38158+P07265); experiment: Inhibition of yeast Alpha glucosidase 4-nitrophenyl-alpha-D-glucopyranoside incubated for 15 to 20 mins by Bio-rad microplate reader analysis; assay type: protein assay
PANC-1 [2] = experiment: Cytotoxicity against human PANC-1 cells assessed as inhibition of cell growth; assay type: functional, cell-based; settings: Homo sapiens, PANC-1; read-out: IC50
PANC-1 [3] = experiment: Induction of ROS production in high glucose-induced human PANC-1 cells assessed as maximum fluorescence intensity at 10 uM incubated for 30 mins DCFDA-staining based flow cytometry analysis (reference value: 15.09); assay type: functional; settings: 0.5 h
[4] = Antioxidant activity assessed as DPPH radical scavenging activity measured for 30 mins by spectrophotometric analysis; assay type: functional; settings: read-out: IC50
[5] = Toxicity in Wistar rat assessed as decrease in body weight at 10 mg/kg, po measured on day 35; assay type: organism-based; settings: in vivo, 840 h, time 35 day
[6] = Toxicity in streptozotocin-induced Wistar rat assessed as morphological changes in liver at 10 mg/kg, po measured up to 35 days; assay type: organism-based; settings: in vivo, 840 h, time < 35 day
Rattus norvegicus [7] = experiment: Antidiabetic activity against streptozotocin-induced Wistar rat assessed as decrease in blood glucose level at 10 mg/kg, po measured at 30 mins by oral glucose test; assay type: functional, organism-based
Rattus norvegicus [8] = experiment: Antidiabetic activity against streptozotocin-induced Wistar rat assessed as decrease in SOD level at 10 mg/kg, po measured upto 35 days; assay type: functional, organism-based; settings: time <= 35.0 day
Rattus norvegicus [9] = experiment: Antidiabetic activity against streptozotocin-induced Wistar rat assessed as decrease in triglyceride level at 10 mg/kg, po measured upto 35 days; assay type: functional, organism-based; settings: time <= 35.0 day
Rattus norvegicus [10] = experiment: Antidiabetic activity against streptozotocin-induced Wistar rat assessed as decrease in HDL level at 10 mg/kg, po measured upto 35 days; assay type: functional, organism-based; settings: time <= 35.0 day
Rattus norvegicus [11] = experiment: Antidiabetic activity against streptozotocin-induced Wistar rat assessed as effect on blood glucose level at 10 mg/kg, po measured on day 1; assay type: functional, organism-based; settings: time 1.0 day
Rattus norvegicus [12] = experiment: Antidiabetic activity against streptozotocin-induced Wistar rat assessed as increase in IL1-beta level in Pancreas at 10 mg/kg, po measured upto 35 days; assay type: functional, organism-based; settings: time <= 35.0 day
Rattus norvegicus [13] = experiment: Antidiabetic activity against Wistar rat assessed as effect on glutathione level at 10 mg/kg, po measured upto 35 days; assay type: functional, organism-based; settings: time <= 35.0 day
Rattus norvegicus [14] = experiment: Antidiabetic activity against streptozotocin-induced Wistar rat assessed as increase in serum ALP level at 10 mg/kg, po measured upto 35 days; assay type: functional, organism-based; settings: time <= 35.0 day
[15] = Toxicity in streptozotocin-induced Wistar rat assessed as decrease in glomeruli shrinkage in kidney at 10 mg/kg, po measured up to 35 days; assay type: organism-based; settings: in vivo, 840 h, time < 35 day
[16] = Toxicity in streptozotocin-induced Wistar rat assessed as change in blood lymphocyte count at 10 mg/kg, po measured up to 35 days; assay type: organism-based; settings: in vivo, 840 h, time < 35 day
[17] = Toxicity in Wistar rat assessed as decrease in body weight at 10 mg/kg, po measured on day 14; assay type: organism-based; settings: in vivo, 336 h, time 14 day
Rattus norvegicus [18] = experiment: Antidiabetic activity against streptozotocin-induced Wistar rat assessed as decrease in MDA level at 10 mg/kg, po measured upto 35 days; assay type: functional, organism-based; settings: time <= 35.0 day
Rattus norvegicus [19] = experiment: Antidiabetic activity against streptozotocin-induced Wistar rat assessed as effect on blood glucose level at 10 mg/kg, po measured on day 4; assay type: functional, organism-based; settings: time 4.0 day
Rattus norvegicus [20] = experiment: Antidiabetic activity against streptozotocin-induced Wistar rat assessed as increase in PPAR-gamma level at 10 mg/kg, po measured upto 35 days by ELISA analysis; assay type: functional, organism-based; settings: time <= 35.0 day

| Structure (SMILES) | IC50 (Alpha-amylase; read-out: IC50) | IC50 (Alpha-glucosidase) | IC50 (PANC-1 [2]) | Flu intensity (PANC-1 [3]) | IC50 [4] | also measured |
| --- | --- | --- | --- | --- | --- | --- |
| C=CCN1C(=O)S/C(=C\c2ccc(Cl)cc2Cl)C1=O | – | – | – | – | – | IC50 (Alpha amylase): 43.85 µg/mL (≈ 140 µM); IC50 [1]: 18.19 µg/mL (≈ 57.9 µM) |
| O=C1S/C(=C\c2c[nH]c3ccccc23)C(=O)N1Cc1ccccc1 | 82.2 µM | 25.76 µM | 191 µM | 22679 | 30.2 µM | – |
| COc1ccc(OC)c(/C=C2\SC(=O)N(Cc3cccc([N+](=O)[O-])c3)C2=O)c1 | 48.1 µM | 201 µM | 62.6 µM | 58455 | 41.8 µM | – |
| COc1ccc(/C=C2\SC(=O)N(Cc3cccc([N+](=O)[O-])c3)C2=O)c(OC)c1 | 30.2 µM | 65.52 µM | 166 µM | 37797 | 32.1 µM | – |
| COc1cccc(/C=C2\SC(=O)N(Cc3cccc([N+](=O)[O-])c3)C2=O)c1OC | 79.1 µM | 153.1 µM | 179 µM | 2271 | 13.6 µM | – |
| CCc1ccc(CCOc2ccc(CC3SC(=O)NC3=O)cc2)nc1 (stereo unspecified) [PIOGLITAZONE] | – | – | – | – | – | Activity [5]: Toxic; Activity [6]: Non-Toxic; Activity (Rattus norvegicus [7]): Active; Activity (Rattus norvegicus [8]): Active; Activity (Rattus norvegicus [9]): Active; Activity (Rattus norvegicus [10]): Active; Activity (Rattus norvegicus [11]): Active; Activity (Rattus norvegicus [12]): Active; Activity (Rattus norvegicus [13]): Active; Activity (Rattus norvegicus [14]): Active; Activity [15]: Toxic; Activity [16]: Non-Toxic; Activity [17]: Non-Toxic; Activity (Rattus norvegicus [18]): Active; Activity (Rattus norvegicus [19]): Active; Activity (Rattus norvegicus [20]): Active |
| O=C1O[C@H]([C@@H](O)CO)C(O)=C1O [ASCORBIC ACID] | – | – | – | – | 25.1 µM | IC50 (Alpha-amylase): Not Active |
| COc1ccc(/C=C2\SC(=O)N(Cc3cccc([N+](=O)[O-])c3)C2=O)cc1 | 118 µM | 57.1 µM | 104 µM | 84568 | 325 µM | – |
| O=C1S/C(=C\c2cccc(Cl)c2Cl)C(=O)N1Cc1cccc([N+](=O)[O-])c1 | 30.4 µM | 54 µM | 179 µM | 65017 | 44.6 µM | – |
| N#Cc1ccccc1-c1ccc(N2C(=O)S/C(=C\c3ccccc3Oc3ccccc3)C2=O)cc1 | – | – | – | – | – | IC50 (Alpha amylase): 0.13 µg/mL (≈ 0.274 µM) |
| COc1cc(OC)c(/C=C2\SC(=O)N(Cc3cccc([N+](=O)[O-])c3)C2=O)c(OC)c1 | 44.6 µM | 11.37 µM | 178 µM | 22596 | 28.4 µM | – |
| COc1cc(/C=C2\SC(=O)N(Cc3cccc([N+](=O)[O-])c3)C2=O)ccc1O | 40.5 µM | 19.73 µM | 190 µM | 66221 | 38.1 µM | – |
